Details: Hot wire method

FC(F)(F)/C=C/Cl [(E)-1-chloro-3,3,3-trifluoroprop-1-ene]
Details | thermal conductivity [W/m/K]
283.61 K, 46184 kPa, Liquid | 0.1051
283.62 K, 194 kPa, Liquid | 0.08723
283.64 K, 39507 kPa, Liquid | 0.1031
283.71 K, 33240 kPa, Liquid | 0.1008
283.73 K, 64639 kPa, Liquid | 0.1101
283.76 K, 27097 kPa, Liquid | 0.09854
283.77 K, 55316 kPa, Liquid | 0.1077
283.82 K, 46190 kPa, Liquid | 0.1049
283.86 K, 39512 kPa, Liquid | 0.1027
283.93 K, 33245 kPa, Liquid | 0.1004
283.99 K, 27090 kPa, Liquid | 0.0982
301.07 K, 36400 kPa, Liquid | 0.09652
301.1 K, 25797 kPa, Liquid | 0.09286
301.12 K, 8081 kPa, Liquid | 0.08639
301.14 K, 16454 kPa, Liquid | 0.08935
301.14 K, 36402 kPa, Liquid | 0.09595
301.16 K, 25808 kPa, Liquid | 0.09205
301.18 K, 7827 kPa, Liquid | 0.08636
301.18 K, 8082 kPa, Liquid | 0.08488
301.18 K, 25511 kPa, Liquid | 0.09374
301.2 K, 16447 kPa, Liquid | 0.08939
301.24 K, 25515 kPa, Liquid | 0.09289
301.25 K, 302 kPa, Liquid | 0.08142
301.25 K, 4078 kPa, Liquid | 0.08444
301.25 K, 7830 kPa, Liquid | 0.08532
301.27 K, 16013 kPa, Liquid | 0.08986
301.31 K, 4086 kPa, Liquid | 0.08339
301.33 K, 303 kPa, Liquid | 0.08177
301.39 K, 62986 kPa, Liquid | 0.1067
301.41 K, 56492 kPa, Liquid | 0.1055
301.42 K, 48436 kPa, Liquid | 0.1008
301.43 K, 65550 kPa, Liquid | 0.1085
301.44 K, 36396 kPa, Liquid | 0.09731
301.47 K, 62992 kPa, Liquid | 0.1061
301.48 K, 42020 kPa, Liquid | 0.09884
301.49 K, 25801 kPa, Liquid | 0.09292
301.49 K, 56482 kPa, Liquid | 0.1049
301.5 K, 36232 kPa, Liquid | 0.09714
301.5 K, 48438 kPa, Liquid | 0.1006
301.5 K, 65547 kPa, Liquid | 0.1082
301.52 K, 47198 kPa, Liquid | 0.101
301.53 K, 8090 kPa, Liquid | 0.08523
301.53 K, 36388 kPa, Liquid | 0.09726
301.54 K, 16449 kPa, Liquid | 0.09014
301.54 K, 20530 kPa, Liquid | 0.09027
301.55 K, 25503 kPa, Liquid | 0.09319
301.55 K, 30551 kPa, Liquid | 0.09454
301.56 K, 143 kPa, Gas | 0.01127
301.56 K, 145 kPa, Gas | 0.01102
301.56 K, 42014 kPa, Liquid | 0.09907
301.57 K, 36234 kPa, Liquid | 0.09632
301.58 K, 25794 kPa, Liquid | 0.0925
301.59 K, 122 kPa, Gas | 0.01123
301.59 K, 131 kPa, Gas | 0.01121
301.6 K, 7831 kPa, Liquid | 0.08616
301.6 K, 11892 kPa, Liquid | 0.08784
301.6 K, 47198 kPa, Liquid | 0.1006
301.61 K, 16007 kPa, Liquid | 0.08871
301.62 K, 8093 kPa, Liquid | 0.08518
301.63 K, 367 kPa, Liquid | 0.08213
301.63 K, 7868 kPa, Liquid | 0.08523
301.63 K, 16455 kPa, Liquid | 0.08833
301.63 K, 20523 kPa, Liquid | 0.09097
301.63 K, 30560 kPa, Liquid | 0.09455
301.65 K, 25502 kPa, Liquid | 0.09219
301.68 K, 4077 kPa, Liquid | 0.08414
301.69 K, 311 kPa, Liquid | 0.08156
301.69 K, 11881 kPa, Liquid | 0.08767
301.69 K, 16012 kPa, Liquid | 0.08885
301.7 K, 7834 kPa, Liquid | 0.08567
301.72 K, 7864 kPa, Liquid | 0.08629
301.73 K, 363 kPa, Liquid | 0.08194
301.77 K, 4081 kPa, Liquid | 0.08378
301.78 K, 307 kPa, Liquid | 0.08197
301.79 K, 62991 kPa, Liquid | 0.1059
301.81 K, 65522 kPa, Liquid | 0.1076
301.83 K, 48074 kPa, Liquid | 0.1002
301.88 K, 36387 kPa, Liquid | 0.09695
301.89 K, 143 kPa, Gas | 0.01116
301.89 K, 62976 kPa, Liquid | 0.1058
301.9 K, 141 kPa, Gas | 0.01138
301.9 K, 65529 kPa, Liquid | 0.1065
301.91 K, 122 kPa, Gas | 0.01121
301.91 K, 42002 kPa, Liquid | 0.09897
301.92 K, 130 kPa, Gas | 0.01129
301.92 K, 36223 kPa, Liquid | 0.09724
301.92 K, 56462 kPa, Liquid | 0.1042
301.93 K, 47191 kPa, Liquid | 0.1005
301.94 K, 25799 kPa, Liquid | 0.09347
301.94 K, 48073 kPa, Liquid | 0.1008
301.94 K, 48421 kPa, Liquid | 0.1013
301.98 K, 30546 kPa, Liquid | 0.09459
301.99 K, 36387 kPa, Liquid | 0.09693
302 K, 16444 kPa, Liquid | 0.08896
302.01 K, 8085 kPa, Liquid | 0.08503
302.01 K, 20519 kPa, Liquid | 0.09088
302.01 K, 25500 kPa, Liquid | 0.09318
302.02 K, 41998 kPa, Liquid | 0.09906
302.03 K, 47196 kPa, Liquid | 0.1005
302.04 K, 36232 kPa, Liquid | 0.09691
302.05 K, 25799 kPa, Liquid | 0.0933
302.07 K, 11891 kPa, Liquid | 0.08755
302.07 K, 16014 kPa, Liquid | 0.08895
302.08 K, 7823 kPa, Liquid | 0.08555
302.09 K, 30563 kPa, Liquid | 0.0947
302.12 K, 7862 kPa, Liquid | 0.08568
302.12 K, 16448 kPa, Liquid | 0.08904
302.12 K, 20518 kPa, Liquid | 0.09092
302.12 K, 25501 kPa, Liquid | 0.09247
302.13 K, 365 kPa, Liquid | 0.08182
302.13 K, 8079 kPa, Liquid | 0.08538
302.16 K, 4079 kPa, Liquid | 0.0839
302.19 K, 312 kPa, Liquid | 0.08161
302.19 K, 11879 kPa, Liquid | 0.08708
302.19 K, 16009 kPa, Liquid | 0.08853
302.2 K, 7820 kPa, Liquid | 0.08528
302.24 K, 7854 kPa, Liquid | 0.08541
302.25 K, 142 kPa, Gas | 0.01122
302.25 K, 62977 kPa, Liquid | 0.106
302.26 K, 139 kPa, Gas | 0.01122
302.26 K, 383 kPa, Liquid | 0.08132
302.27 K, 65494 kPa, Liquid | 0.1068
302.28 K, 122 kPa, Gas | 0.01119
302.28 K, 130 kPa, Gas | 0.01138
302.28 K, 56452 kPa, Liquid | 0.1046
302.29 K, 4074 kPa, Liquid | 0.08366
302.3 K, 48061 kPa, Liquid | 0.1009
302.31 K, 299 kPa, Liquid | 0.08152
302.31 K, 48422 kPa, Liquid | 0.1015
302.37 K, 62973 kPa, Liquid | 0.1058
302.38 K, 36377 kPa, Liquid | 0.09716
302.39 K, 42000 kPa, Liquid | 0.09898
302.39 K, 65480 kPa, Liquid | 0.1069
302.4 K, 56441 kPa, Liquid | 0.104
302.41 K, 36234 kPa, Liquid | 0.09718
302.41 K, 47190 kPa, Liquid | 0.1008
302.42 K, 48052 kPa, Liquid | 0.1012
302.44 K, 48420 kPa, Liquid | 0.1011
302.45 K, 25800 kPa, Liquid | 0.09349
302.47 K, 30544 kPa, Liquid | 0.0948
302.51 K, 20515 kPa, Liquid | 0.09108
302.51 K, 25497 kPa, Liquid | 0.09286
302.51 K, 36380 kPa, Liquid | 0.09677
302.52 K, 41997 kPa, Liquid | 0.0988
302.53 K, 132 kPa, Gas | 0.0109
